Measurements as given in ChEMBL document CHEMBL1201862, “PubChem BioAssay data set” (2004).
The source made the active and inactive calls.

Columns and labels:
[1] = inhibitors of Vif binding to APOBEC3G peptide, primary screen, biochemical, TR-FRET, GST-Vif 1-94, biotin-A3G peptide, dose response retest (AID 1117319); format: functional;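 further: TR-FRET signal of purified GST-Vif binding a biotinylated A3G peptide; inhibitors lower the FRET signal by blocking Vif and A3G binding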
[2] = cytotoxicity in HEK-293T cells, dose response, cytotoxicity control for TCR NF-kB inhibitor project, luminescence, T-cell screen hits (AID 489026); format: functional, cell-based;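 further: cells exposed to compound about 14 hours before the viability readout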
[3] = target: T1, Tyrosine-protein phosphatase non-receptor type 7 (Homo sapiens, UniProt P35236); assay: inhibitors of human HePTP phosphatase, […], biochemical, absorbance, leukemia target (AID 521); format: functional
T1 sequence (P35236 whole entry): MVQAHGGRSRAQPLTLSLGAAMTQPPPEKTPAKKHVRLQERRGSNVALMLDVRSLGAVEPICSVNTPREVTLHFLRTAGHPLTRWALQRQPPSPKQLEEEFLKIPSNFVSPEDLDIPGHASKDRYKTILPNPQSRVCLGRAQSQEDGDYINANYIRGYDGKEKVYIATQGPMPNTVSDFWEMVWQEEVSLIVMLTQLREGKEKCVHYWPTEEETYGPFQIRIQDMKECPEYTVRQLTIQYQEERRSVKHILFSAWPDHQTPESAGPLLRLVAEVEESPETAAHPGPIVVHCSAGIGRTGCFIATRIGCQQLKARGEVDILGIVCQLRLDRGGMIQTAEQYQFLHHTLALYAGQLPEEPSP

[4] = inhibitors of HIV Env-driven cell fusion, dose response, cherry-pick (AID 652057); format: functional, cell-based
[5] = off-target signal loss in HeLa-CEM21 co-culture – HeLa F-luc CTL cells, cherry-picked, counter-screen for HIV-1 Env fusion inhibitor project, dose response (AID 652040); format: functional, cell-based;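 further: potency for signal decrease marking cytotoxic or nonspecific inhibition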
[6] = ZM109 Env clade C HIV-1 fusion inhibitors, dose response, HeLa effector, CEM target cells, luciferase, cherry-pick (AID 652058); format: functional, cell-based
[7] = inhibitors of clade B AD8 Env fusion, dose response, cell-based, cherry-pick (AID 652062); format: functional;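 further: luciferase signal from cell-cell fusion driven by HIV-1 clade B AD8 Env; potency is for inhibitors of fusion seen as a drop in luminescence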
[8] = cytotoxicity in HEK-293T NF-kB-Luc cells, dose response, cytotoxicity control for B/T-cell NF-kB inhibitor project, cell-based, uHTS hits (AID 489019); format: functional;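 further: IC50 reflects cytotoxicity as loss of cell viability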
Jurkat = assay: antigen receptor-induced NF-kB inhibitors, dose response, Jurkat, luciferase reporter, luminescence, B- and T-cell (AID 489004); format: functional, cell-based; conditions: Homo sapiens;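 further: NF-kB luciferase reporter Jurkat cells stimulated with PMA plus ionomycin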
[9] = target: T2, Microphthalmia-associated transcription factor (Homo sapiens, UniProt O75030); assay: TRPM1 promoter luciferase signal decrease, dose response, MITF inhibitor project, cell-based, SK-MEL-5, cherry-picked, set 3 (AID 493073); format: functional
T2 sequence (O75030 whole entry): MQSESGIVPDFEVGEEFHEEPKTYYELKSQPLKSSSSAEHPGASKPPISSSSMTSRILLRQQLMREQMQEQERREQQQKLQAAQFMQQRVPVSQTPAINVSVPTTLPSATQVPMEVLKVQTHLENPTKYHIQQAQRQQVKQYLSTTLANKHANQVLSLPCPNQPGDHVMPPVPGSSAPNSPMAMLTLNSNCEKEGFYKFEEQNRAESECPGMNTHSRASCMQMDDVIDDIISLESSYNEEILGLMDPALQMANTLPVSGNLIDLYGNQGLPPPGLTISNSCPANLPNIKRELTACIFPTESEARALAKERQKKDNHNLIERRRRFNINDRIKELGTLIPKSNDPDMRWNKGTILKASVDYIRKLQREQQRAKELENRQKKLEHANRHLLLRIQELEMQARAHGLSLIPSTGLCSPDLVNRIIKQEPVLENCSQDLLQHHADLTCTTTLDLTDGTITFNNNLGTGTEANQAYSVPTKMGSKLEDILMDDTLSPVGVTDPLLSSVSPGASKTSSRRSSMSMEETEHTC

[10] = control 3'UTR Renilla luciferase suppression, dose response, counter-screen for Shn3 inhibitor project, cell-based, Clone20-Shn3RL, cherry-picked (AID 624133); format: functional
[11] = HepG2 cell cytotoxicity, dose response, cytotoxicity control for Shn3 inhibitor project, CellTiter-Glo, cherry-picked (AID 624134); format: functional, cell-based
[12] = Shn3 3'UTR reporter inhibitors, dose response, cell-based, Clone20 osteoblasts, firefly luciferase, cherry-picked (AID 624132); format: functional;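 further: firefly luciferase luminescence from reporter carrying the Shn3 3'UTR in osteoblasts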
INS1 = assay: beta cell apoptosis inhibitors, cytokine rescue, dose response, luminescence, retest (AID 449756); format: functional, cell-based; conditions: Rattus norvegicus;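 further: cell death triggered by IL-1 beta plus TNF-alpha plus IFN-gamma mixture; protective hits raise ATP signal compared with cytokine alone wells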
[13] = target: T3, COUP transcription factor 2 (Homo sapiens, UniProt P24468); assay: Luminescence-based cell-based high throughput dose response assay to identify inhibitors of COUP-TFII (NR2F2).; format: functional;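 further: HEK293 cells transiently cotransfected with COUP-TFII expression vector and reporter; luciferase reporter luminescence driven by COUP-TFII from the pX2-168 reporter plasmid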
T3 sequence (P24468 whole entry): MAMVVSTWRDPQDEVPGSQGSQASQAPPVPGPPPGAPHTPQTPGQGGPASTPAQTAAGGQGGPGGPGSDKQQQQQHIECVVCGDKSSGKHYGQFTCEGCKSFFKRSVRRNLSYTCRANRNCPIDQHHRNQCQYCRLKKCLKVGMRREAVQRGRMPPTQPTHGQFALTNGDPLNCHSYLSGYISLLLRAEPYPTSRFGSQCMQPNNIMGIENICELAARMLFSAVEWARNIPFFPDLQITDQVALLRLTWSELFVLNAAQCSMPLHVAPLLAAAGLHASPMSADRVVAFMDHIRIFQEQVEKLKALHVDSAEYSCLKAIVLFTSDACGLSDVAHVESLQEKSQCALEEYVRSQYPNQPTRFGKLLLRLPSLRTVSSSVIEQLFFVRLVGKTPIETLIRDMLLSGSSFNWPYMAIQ

[14] = target: Mitogen-activated protein kinase 10 (Homo sapiens, UniProt P53779); assay: Dose response biochemical screening assay for inhibitors of c-Jun N-Terminal Kinase 3 (JNK3). [Related pubchem assays: 746 ]
[15] = target: Heat shock protein HSP 90-alpha (Homo sapiens, UniProt P07900); assay: Luminescence-based dose response biochemical high throughput screening assay for inhibitors of the Heat Shock Protein 90 (HSP90). [Related pubchem assays: 1831 (Summary AID.), 1846 (Confirmation screen.), 1789 (Primary screen.)]
[16] = cytotoxicity toward NIH3T3 fibroblasts, dose response, counter-screen, cell-based, ATP luminescence, mouse fibroblasts (AID 2010); format: functional;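 further: cells exposed to compound for about 90 hours before reading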
[17] = Vero cell cytotoxicity, dose response, cytotoxicity control for Vif-APOBEC3G degradation inhibitor project, Vero cells (AID 1117358); format: functional; conditions: Human immunodeficiency virus 1, Vero
[18] = inhibitors of intracellular T. cruzi replication, confirmation, NIH3T3 host cells, beta-gal luminescence (AID 2044); format: functional, cell-based;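 further: intracellular parasites grown in NIH/3T3 mouse fibroblasts as host cells; luminescent beta-galactosidase reporter signal from transgenic T. cruzi replicating inside host cells; inhibitors lower the luminescence signal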
Vero = assay: host cell cytotoxicity of antiviral hits, dose response, cytotoxicity control for West Nile virus antiviral project, secondary assay (AID 1650); format: functional; conditions: Chlorocebus sabaeus

Chain of Mitogen-activated protein kinase 10 (P53779 whole entry): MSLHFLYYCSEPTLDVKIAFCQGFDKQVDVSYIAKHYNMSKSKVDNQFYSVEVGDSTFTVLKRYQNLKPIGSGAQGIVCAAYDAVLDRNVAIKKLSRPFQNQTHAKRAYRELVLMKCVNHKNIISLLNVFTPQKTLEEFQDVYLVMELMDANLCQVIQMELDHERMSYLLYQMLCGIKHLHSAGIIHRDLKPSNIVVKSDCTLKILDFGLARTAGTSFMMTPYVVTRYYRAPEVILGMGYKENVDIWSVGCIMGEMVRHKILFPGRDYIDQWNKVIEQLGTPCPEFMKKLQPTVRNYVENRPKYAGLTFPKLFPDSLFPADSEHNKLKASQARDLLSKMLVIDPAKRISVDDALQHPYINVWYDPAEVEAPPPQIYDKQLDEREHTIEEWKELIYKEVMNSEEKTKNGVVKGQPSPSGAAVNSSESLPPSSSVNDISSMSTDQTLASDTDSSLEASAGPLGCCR

**Q.** For `COc1ccc(S(=O)(=O)NC2CC(C)(C)NC(C)(C)C2)c(C)c1C`, which IC50 [1] is on record?
**A.** > 100 µM (active)

**Q.** Which IC50 [2] does the source give for `CN(C)c1ccc(-c2nn3c(-c4ccccc4Cl)nnc3s2)cc1` here?
**A.** > 80 µM (inactive)

**Q.** And the IC50 [3]?
**A.** > 100 µM (not active)

**Q.** With `CN1CCN(c2ccccc2NC(=O)C(Cc2ccccc2)n2cccc2)CC1` (centres undefined) as the molecule, how does the AC50 [4] read?
**A.** 6.11 µM (active)

**Q.** What about the AC50 [5] of the same molecule?
**A.** 12.3 µM (active)

**Q.** And the AC50 [6]?
**A.** 6.39 µM (active)

**Q.** What about the AC50 [7] of the same molecule?
**A.** 17.5 µM (active)

**Q.** What about the IC50 [1] of the same molecule?
**A.** > 100 µM (active)

**Q.** For `CC(=O)OCC1=C(C(=O)O)N2C(=O)[C@@H](NC(=O)Cc3cccs3)[C@H]2SC1` [CEPHALOTHIN SODIUM], which IC50 [3] is on record?
**A.** 0.92 µM (active)

**Q.** For `COc1cc(NC(=O)COc2cc(O)c3c(c2)OC(C)(C)CC3=O)cc(OC)c1OC`, which IC50 [8] is on record?
**A.** 69.1 µM (inactive)

**Q.** And the IC50 (Jurkat)?
**A.** 39.9 µM (inactive)

**Q.** And the AC50 [9]?
**A.** 5.36 µM (active)

**Q.** What about the AC50 [10] of the same molecule?
**A.** 0.727 µM (active)

**Q.** What about the AC50 [11] of the same molecule?
**A.** 2.04 µM (active)

**Q.** What about the AC50 [12] of the same molecule?
**A.** 0.354 µM (active)

**Q.** What about the AC50 (INS1) of the same molecule?
**A.** 3.99 µM (active)

**Q.** And the IC50 [13]?
**A.** 2.54 µM (active)

**Q.** With `CC(NC(=O)c1ccco1)C(c1cccs1)N1CCOCC1` (centres undefined) as the molecule, how does the IC50 [3] read?
**A.** > 100 µM (not active)

**Q.** With `COc1cc(NC(=O)C2CC(c3cccc(OC)c3OC)=NO2)cc(OC)c1OC` (centres undefined) as the molecule, how does the IC50 [14] read?
**A.** 4.19 µM (active)

**Q.** Which IC50 [15] does the source give for `C=CCOc1c(CNc2cccc(C(=O)O)c2)cccc1OC` here?
**A.** 2.39 µM (active)

**Q.** With `CCc1ccc(N/C(SCc2cccc(F)c2)=C(/C#N)C(=O)NCc2ccco2)cc1` as the molecule, how does the EC50 [16] read?
**A.** 10.4 µM (active)

**Q.** And the CC50 [17]?
**A.** > 40 µM (active)

**Q.** And the EC50 [18]?
**A.** 1.7 µM (active)

**Q.** For `CCc1ccc(NC(=O)C(=O)NCCN2CCN(Cc3ccc([N+](=O)[O-])cc3)CC2)cc1`, which CC50 (Vero) is on record?
**A.** 37.7 µM (active)
